Laboratory results as given in US9409876B2, “Bradykinin receptor antagonists and pharmaceutical compositions containing them” (DOMPE' FARMACEUTICI S.P.A., priority 2013, dated 2016).
Read-outs that look alike come from different tables or passages of the source.

Experiments:
[1] = Pharmacokinetics after IV administration, brain penetration assessment; format: in vivo, rat; settings: for concentration at 60 min / concentration at 240 min / concentration at 15 min: iv, 7.5 mg/kg
Description: In three of the rats tested in Example 56, indicated as R1, […], also the pharmacokinetic profile of compound 8 (R,R) was evaluated. The results are summarised in Tables III to IV and in FIGS. 1-4.
In tables III and V, T1/2 means the half-time of the compound, Tmax means the time at which the concentration of the compound reaches the maximum level, Cmax means the maximal concentration, Tlast means the latest time-point at which the concentration of the compound can be measured, Clast means the concentration at the latest time-point at which the concentration of the compound can be measured, AUClast means the area under the curve at the latest time-point at which the concentration of the compound can be measured, AUCinf_obs means the area under the curve which is infinitely extrapolated and MRTlast means the mean residence time at the latest time-point at which the concentration of the compound can be measured.
In tables IV and VI, LLOQ means lower limit of quantification.
Brain penetration was performed by IV administration at 7.5 mg/kg.

[2] = system: CCI-induced mechanical allodynia; assay: Chronic constriction model of pain, mechanical allodynia; format: in vivo, rat
Description: An evaluation of the in vivo activity of compound 8 (R,R) was performed by testing the inhibition potential in mechanical allodynia using the chronic constriction model of pain.
Male Sprague-Dawley (SD) derived rats weighing 180±20 g (at arrival) were provided by BioLasco Taiwan (under Charles River Laboratories Technology Licensee). Space allocation for 5 animals per cage was 45×23×21 cm and maintained in a controlled temperature (20-24° C.) and humidity (50%-80%) environment with 12 hours light/dark cycles for at least three days in Ricerca Biosciences, LLC (Taipei, Taiwan) Laboratory prior to use. Free access to standard lab chow for rats [MF-18 (Oriental Yeast Co., Ltd., Japan)] and tap water was granted. All aspects of this work including housing, experimentation and disposal of animals were performed in general accordance with the Guide for the Care and Use of Laboratory Animals (National Academy Press, Washington, D. C., 2010).
Neuropathic pain behavior was induced by ligation of the sciatic nerve according to the method described by Bennett and Xie [Bennett G. J. and Xie Y. K. A peripheral mononeuropathy in rat that produces disorders of pain sensation like those seen in man, Pain, (1988) 33:87-107]. Briefly, rats were anaesthetized under pentobarbital (50 mg/kg, 5 mL/kg, IP) anesthesia and the sciatic nerve was exposed at mid-thigh level. […]
The rats had access to food and water up to the time of the experiment, and then were placed under inverted Plexiglas cages on a wire mesh rack and allowed to acclimate for 20 to 30 minutes. Allodynia was evaluated using the Chaplin “up/down” method using von Frey hairs [Chaplan, S. R, Bach, F. W., Pogrel, J. W., Chung, J. M. and Yaksh, T. L. Quantitative assessment of tactile allodynia in the rat paw. […]
The threshold of response of the treated rats was compared to respective vehicle treated rats; two-way ANOVA followed by Bonferroni's test was used for comparison between vehicle and treated groups. […] The delta change value at each time point was also calculated. […]

[3] = Metabolic stability in liver microsomes with NADPH; format: in vitro ADME; settings: Wistar, rat, microsomes 0.5 mg/ml, pH 7.4, with NADPH, read-out: intrinsic clearance (CLint)
Description: Metabolic stability of compound 8 (R,R) was also determined in rat wistar liver microsomes in the in the presence of NADPH.
The concentration of the compound 8 (R,R) was 1 μM and microsomes 0.5 mg/ml in phosphate buffer 0.1M pH 7.4 with NADPH.
The degradation of the substrates was measured in duplicate by LC/MS/MS during six time points of incubation.

[4] = IV 7.5 mg/kg, Time 480, Average
[5] = Sprague-Dawley (SD), rat, IV 7.5 mg/kg, Brain
[6] = Sprague-Dawley (SD), rat, IV 7.5 mg/kg, Plasma
[7] = Sprague-Dawley, rat, IV 7.5 mg/kg, Brain

- Tlast ([1]; IV 7.5 mg/kg, Brain): 60 min
- Tlast ([1]; IV 7.5 mg/kg, Plasma): 240 min
- Brain level ([1]; IV 7.5 mg/kg, Time 15, Average): 635.1 ng/g
- Brain level ([1]; IV 7.5 mg/kg, Time 15, R1): 619.3 ng/g
- Brain level ([1]; IV 7.5 mg/kg, Time 15, R2): 446.05 ng/g
- Brain level ([1]; IV 7.5 mg/kg, Time 15, R3): 839.85 ng/g
- Brain level ([1]; IV 7.5 mg/kg, Time 240, Average): <LLOQ
- Brain level ([1]; IV 7.5 mg/kg, Time 240, R1): <LLOQ
- Brain level ([1]; IV 7.5 mg/kg, Time 240, R2): <LLOQ
- Brain level ([1]; IV 7.5 mg/kg, Time 240, R3): <LLOQ
- Brain level [1, 4]: <LLOQ
- plasma level [1, 4]: <LLOQ
- Brain level ([1]; IV 7.5 mg/kg, Time 480, R1): <LLOQ
- plasma level ([1]; IV 7.5 mg/kg, Time 480, R1): <LLOQ
- Brain level ([1]; IV 7.5 mg/kg, Time 480, R2): <LLOQ
- plasma level ([1]; IV 7.5 mg/kg, Time 480, R2): <LLOQ
- Brain level ([1]; IV 7.5 mg/kg, Time 480, R3): <LLOQ
- plasma level ([1]; IV 7.5 mg/kg, Time 480, R3): <LLOQ
- concentration at 60 min ([1]; Sprague-Dawley (SD), rat, brain, Brain, read-out: Clast): 48.8 ng/mL
- concentration at 240 min ([1]; Sprague-Dawley (SD), rat, plasma, Plasma, read-out: Clast): 4.2 ng/mL
- AUC(0-t) [1, 5]: 523 ng·h/mL
- MRT last [1, 5]: 11.2 min
- AUC(0-t) [1, 6]: 1200 ng·h/mL
- MRT last [1, 6]: 15.9 min
- Tmax [1, 6]: 15 min
- half-life ([1]; Sprague-Dawley (SD), rat, IV 7.5 mg/kg, Plasma, read-out: T½): 12.5 min
- concentration at 60 min ([1]; Sprague-Dawley, rat, brain, Time 60, Average, read-out: Brain level): 48.8 ng/g
- concentration at 60 min ([1]; Sprague-Dawley, rat, brain, Time 60, R1, read-out: Brain level): 62.1 ng/g
- concentration at 60 min ([1]; Sprague-Dawley, rat, brain, Time 60, R2, read-out: Brain level): 34.6 ng/g
- concentration at 60 min ([1]; Sprague-Dawley, rat, brain, Time 60, R3, read-out: Brain level): 49.5 ng/g
- Kp ([1]; Sprague-Dawley, rat, brain, IV 7.5 mg/kg, average on the AUC ratio): ~0.43
- concentration at 15 min ([1]; Sprague-Dawley, rat, plasma, Time 15, Average, read-out: Plasma level): 1400 ng/mL
- concentration at 15 min ([1]; Sprague-Dawley, rat, plasma, Time 15, R1, read-out: Plasma level): 1600 ng/mL
- concentration at 15 min ([1]; Sprague-Dawley, rat, plasma, Time 15, R2, read-out: Plasma level): 1140 ng/mL
- concentration at 15 min ([1]; Sprague-Dawley, rat, plasma, Time 15, R3, read-out: Plasma level): 1470 ng/mL
- concentration at 60 min ([1]; Sprague-Dawley, rat, plasma, Time 60, Average, read-out: Plasma level): 162 ng/mL
- concentration at 60 min ([1]; Sprague-Dawley, rat, plasma, Time 60, R1, read-out: Plasma level): 123 ng/mL
- concentration at 60 min ([1]; Sprague-Dawley, rat, plasma, Time 60, R2, read-out: Plasma level): 157 ng/mL
- concentration at 60 min ([1]; Sprague-Dawley, rat, plasma, Time 60, R3, read-out: Plasma level): 205 ng/mL
- concentration at 240 min ([1]; Sprague-Dawley, rat, plasma, Time 240, Average, read-out: Plasma level): 4.2 ng/mL
- concentration at 240 min ([1]; Sprague-Dawley, rat, plasma, Time 240, R1, read-out: Plasma level): 4.05 ng/mL
- concentration at 240 min ([1]; Sprague-Dawley, rat, plasma, Time 240, R2, read-out: Plasma level): 3.35 ng/mL
- concentration at 240 min ([1]; Sprague-Dawley, rat, plasma, Time 240, R3, read-out: Plasma level): 5.2 ng/mL
- Cmax [1, 7]: 635 ng/g
- Tmax [1, 7]: 15 min
- Cmax ([1]; Sprague-Dawley, rat, IV 7.5 mg/kg, Plasma): 1400 ng/mL
- microsomal CLint at 1 μM [3]: 851 µL/min/mg
Compound: COc1ccccc1CN(C(=O)CC(C)C)[C@@H](C(=O)NC[C@H]1CCCO1)c1ccc(C)cc1 [Compound 8 (R,R), 3-methyl-N-(2-methoxybenzyl)-N-{[(1R)-1-(4-methylphenyl)]-2-oxo-2-[(2R)-(tetrahydrofuran-2-ylmethyl)amino]ethyl}butanamide]
- significant reversal of CCI-induced mechanical allodynia ([2]; 30 mg/kg IV, 2 and 3 hours post-dose): not at 2 and 3 hours post-dose
- inhibition of CCI-induced mechanical allodynia ([2]; 30 mg/kg IV, 1 hour post-dose): 37%
- inhibitory activity on allodynia ([2]; chronic constriction model of pain): strong inhibitory activity on allodynia
